Data on 24 molecules can be found in US20250101041A1, “POSITIVE ALLOSTERIC MODULATORS OF THE MUSCARINIC ACETYLCHOLINE RECEPTOR M4” (Vanderbilt University, priority 2022, published 2025).

For this assay, the target named is T1, human mAChR M4 (Homo sapiens, UniProt P08173).
T1 construct: expressed in transfected cells; host or cells: CHO-K1 (American Type Culture Collection), stably expressing hM4 and Gqi5
T1 sequence (P08173 1-479): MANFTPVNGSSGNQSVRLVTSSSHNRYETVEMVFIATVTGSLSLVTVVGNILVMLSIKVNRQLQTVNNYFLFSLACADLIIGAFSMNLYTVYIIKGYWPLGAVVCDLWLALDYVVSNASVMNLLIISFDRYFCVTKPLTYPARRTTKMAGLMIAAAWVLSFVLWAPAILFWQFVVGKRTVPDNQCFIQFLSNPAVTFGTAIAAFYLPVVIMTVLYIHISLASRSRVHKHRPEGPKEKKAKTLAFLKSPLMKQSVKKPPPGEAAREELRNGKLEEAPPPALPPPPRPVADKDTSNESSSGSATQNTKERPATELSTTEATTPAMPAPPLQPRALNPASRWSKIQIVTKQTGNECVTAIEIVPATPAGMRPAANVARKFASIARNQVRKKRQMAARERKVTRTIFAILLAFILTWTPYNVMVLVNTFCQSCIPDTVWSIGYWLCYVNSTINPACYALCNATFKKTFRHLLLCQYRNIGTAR
Nature of the assay: mAChR M4 cell-based functional assay: calcium mobilization (Fluo-4, FDSS), potentiation of EC20 acetylcholine response in hM4-Gqi5 CHO-K1 cells. The settings on record: human M4; for Emax at 30 µM: CHO-K1, % ACh maximum at 30 μM; for EC50: potentiation of EC20 acetylcholine response, calcium mobilization. The method in brief:
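Readout is the fluorescence-ratio rise at 1 Hz on FDSS, with PAM activity taken as concentration-dependent enhancement of the EC20 acetylcholine response, fitted four-parameter for EC50/Emax. hM4-Gqi5 CHO-K1 cells carried Fluo-4 AM dye; test compounds (11 points, 1:3) preceded EC20 acetylcholine additions at 144 s and 230 s.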
On the technique in general: Calcium flux is commonly read through the fluorescence of an indicator in the cells.

As a reminder, the Emax is the greatest response seen or fitted, relative to the assay's reference. For orientation: EC50 means the concentration giving half of the maximal effect. For `Cc1cc(=O)n2nc(N3CCc4ncc(Oc5ccccc5F)cc4C3)c(C)cc2n1` [Compound 3-2, 7-(3-(2-fluorophenoxy)-7,8-dihydro-1,6-naphthyridin-6(5H)-yl)-2,8-dimethyl-4H-pyrimido[1,2-b]pyridazin-4-one], the Emax at 30 µM was determined as 80% and the EC50 came out at 55 nM.

Consider `Cc1c(N2CCc3ncc(N4C[C@@H](C)O[C@@H](C)C4)cc3C2)nn2c(=O)cc(C(F)F)nc2c1C` [Compound 2-41, 2-(difluoromethyl)-7-(3-((2R,6S)-2,6-dimethylmorpholino)-7,8-dihydro-1,6-naphthyridin-6(5H)-yl)-8,9-dimethyl-4H-pyrimido[1,2-b]pyridazin-4-one], for which the Emax at 30 µM was determined as 96% and the EC50 was 822 nM.

With `Cc1c(N2CCc3ncc(C(F)(F)F)cc3C2)nn2c(=O)cc(C(F)(F)F)nc2c1C` [Compound 1-39, 8,9-dimethyl-2-(trifluoromethyl)-7-(3-(trifluoromethyl)-7,8-dihydro-1,6-naphthyridin-6(5H)-yl)-4H-pyrimido[1,2-b]pyridazin-4-one], the Emax at 30 µM is 86% and the 50% effective concentration (EC50) was 206 nM.

Turning to `Cc1cc2ncc(Cl)c(=O)n2nc1N1CCc2ncc(-c3ccnn3C)cc2C1` [Compound 1-10, 3-chloro-8-methyl-7-(3-(1-methyl-1H-pyrazol-5-yl)-7,8-dihydro-1,6-naphthyridin-6(5H)-yl)-4H-pyrimido[1,2-b]pyridazin-4-one], the maximal response (Emax) at 30 µM stood at 86% and the 50% effective concentration (EC50) amounted to 162 nM.

As for `Cc1c(N2CCc3ncc(-c4ccccc4F)cc3C2)nn2c(=O)ccnc2c1C` [Compound 1-343, 7-(3-(2-fluorophenyl)-7,8-dihydro-1,6-naphthyridin-6(5H)-yl)-8,9-dimethyl-4H-pyrimido[1,2-b]pyridazin-4-one], the Emax at 30 µM is 77% and the EC50 came to 400 nM.

With `Cc1cc(Nc2cnc3c(c2)CN(c2nn4c(=O)ccnc4cc2C)CC3)c(F)cn1` [Compound 2-155, 7-(3-((5-fluoro-2-methylpyridin-4-yl)amino)-7,8-dihydro-1,6-naphthyridin-6(5H)-yl)-8-methyl-4H-pyrimido[1,2-b]pyridazin-4-one], the Emax at 30 µM amounted to 94% and the EC50 is 21 nM.

On to `Cc1nc(-c2cccc(Nc3cnc4c(c3)CN(c3nn5c(=O)ccnc5cc3C)CC4)c2)cs1` [Compound 2-83, 8-methyl-7-(3-((3-(2-methylthiazol-4-yl)phenyl)amino)-7,8-dihydro-1,6-naphthyridin-6(5H)-yl)-4H-pyrimido[1,2-b]pyridazin-4-one], for which the Emax at 30 µM is 59% and the EC50 was determined as 639 nM.

Turning to `Cc1ccc(F)cc1-c1cnc2c(c1)CN(c1nn3c(=O)cc(C(F)F)nc3c(C)c1C)CC2` [Compound 1-171, 2-(difluoromethyl)-7-(3-(5-fluoro-2-methylphenyl)-7,8-dihydro-1,6-naphthyridin-6(5H)-yl)-8,9-dimethyl-4H-pyrimido[1,2-b]pyridazin-4-one], the maximum response (Emax) at 30 µM worked out at 91% and the EC50 turned out to be 429 nM.

With `Cc1cc(=O)n2nc(N3CCc4ncc(-c5cc(F)nc(F)c5)cc4C3)c(C)c(C)c2n1` [Compound 1-246, 7-(3-(2,6-difluoropyridin-4-yl)-7,8-dihydro-1,6-naphthyridin-6(5H)-yl)-2,8,9-trimethyl-4H-pyrimido[1,2-b]pyridazin-4-one], the Emax at 30 µM is 80% and the EC50 was determined as 1020 nM.

Regarding `COCc1cc(=O)n2nc(N3CCc4ncc(-c5cc(F)ccc5F)cc4C3)c(C)cc2n1` [Compound 1-336, 7-(3-(2,5-difluorophenyl)-7,8-dihydro-1,6-naphthyridin-6(5H)-yl)-2-(methoxymethyl)-8-methyl-4H-pyrimido[1,2-b] pyridazin-4-one], the Emax at 30 µM was determined as 66% and the half-maximal effective concentration (EC50) is 357 nM.

Take `Cc1cc2nccc(=O)n2nc1N1CCc2ncc(NCC(C)C)cc2C1` [Compound 2-90, 7-(3-(isobutylamino)-7,8-dihydro-1,6-naphthyridin-6(5H)-yl)-8-methyl-4H-pyrimido[1,2-b]pyridazin-4-one]: the Emax at 30 µM came to 69% and the 50% effective concentration (EC50) stood at 798 nM.

With `Cc1c(N2CCc3ncc(-c4cccnc4)cc3C2)nn2c(=O)cc(C(F)F)nc2c1C` [Compound 1-155, 2-(difluoromethyl)-8,9-dimethyl-7-(3-(pyridin-3-yl)-7,8-dihydro-1,6-naphthyridin-6(5H)-yl)-4H-pyrimido[1,2-b]pyridazin-4-one], the Emax at 30 µM was determined as 91% and the 50% effective concentration (EC50) worked out at 62 nM.

`Cc1cc2nccc(=O)n2nc1N1CCc2ncc(Nc3cc(F)cc(F)c3)cc2C1` [Compound 2-105, 7-(3-((3,5-difluorophenyl)amino)-7,8-dihydro-1,6-naphthyridin-6(5H)-yl)-8-methyl-4H-pyrimido[1,2-b]pyridazin-4-one]: the maximal effect (Emax) at 30 µM was determined as 88% and the EC50 came out at 19 nM.

As for `Cc1c(N2CCc3ncc(-c4cccs4)cc3C2)nn2c(=O)cc(C(F)F)nc2c1C` [Compound 1-312, 2-(difluoromethyl)-8,9-dimethyl-7-(3-(thiophen-2-yl)-7,8-dihydro-1,6-naphthyridin-6(5H)-yl)-4H-pyrimido[1,2-b]pyridazin-4-one], the Emax at 30 µM was determined as 82% and the concentration for a half-maximal effect (EC50) turned out to be 158 nM.

On to `Cc1cc(=O)n2nc(N3CCc4ncc(-c5ccncc5C)cc4C3)c(C)c(C)c2n1` [Compound 1-245, 2,8,9-trimethyl-7-(3-(3-methylpyridin-4-yl)-7,8-dihydro-1,6-naphthyridin-6(5H)-yl)-4H-pyrimido[1,2-b] pyridazin-4-one], for which the maximal response (Emax) at 30 µM was 87% and the EC50 was 72 nM.

Regarding `Cc1c(N2CCc3ncc(-c4cnccc4Cl)cc3C2)nn2c(=O)ccnc2c1C` [Compound 1-145, 7-(3-(4-chloropyridin-3-yl)-7,8-dihydro-1,6-naphthyridin-6(5H)-yl)-8,9-dimethyl-4H-pyrimido[1,2-b]pyridazin-4-one], the Emax at 30 µM is 88% and the 50% effective concentration (EC50) came out at 122 nM.

Regarding `Cc1c(N2CCc3ncc(C(F)(F)F)cc3C2)nn2c(=O)cc(C(F)F)nc2c1C` [Compound 1-40, 2-(difluoromethyl)-8,9-dimethyl-7-(3-(trifluoromethyl)-7,8-dihydro-1,6-naphthyridin-6(5H)-yl)-4H-pyrimido[1,2-b]pyridazin-4-one], the Emax at 30 µM was 93% and the EC50 amounted to 38 nM.

In the case of `Cc1cc(=O)n2nc(N3CCc4ncc(-c5cnn(C)c5C)cc4C3)c(C)cc2n1` [Compound 1-294, 7-(3-(1,5-dimethyl-1H-pyrazol-4-yl)-7,8-dihydro-1,6-naphthyridin-6(5H)-yl)-2,8-dimethyl-4H-pyrimido[1,2-b]pyridazin-4-one], the Emax at 30 µM was determined as 99% and the concentration for a half-maximal effect (EC50) was determined as 245 nM.

For `COCc1cc(=O)n2nc(N3CCc4ncc(-c5cc(F)ncc5C)cc4C3)c(C)cc2n1` [Compound 1-328, 7-(3-(2-fluoro-5-methylpyridin-4-yl)-7,8-dihydro-1,6-naphthyridin-6(5H)-yl)-2-(methoxymethyl)-8-methyl-4H-pyrimido[1,2-b] pyridazin-4-one], the Emax at 30 µM was 68% and the EC50 was found to be 484 nM.

Turning to `[2H]C1([2H])Cc2ncc(Nc3ccccc3F)cc2C([2H])([2H])N1c1nn2c(=O)ccnc2cc1C` [Compound 2-166, 7-(3-((2-fluorophenyl)amino)-7,8-dihydro-1,6-naphthyridin-6(5H)-yl-5,5,7,7-d4)-8-methyl-4H-pyrimido[1,2-b]pyridazin-4-one], the Emax at 30 µM was determined as 84% and the concentration giving a half-maximal response (EC50) was 2 nM.

Regarding `COCc1cc(=O)n2nc(N3CCc4ncc(-c5cnccc5C)cc4C3)c(C)c(C)c2n1` [Compound 1-228, 2-(methoxymethyl)-8,9-dimethyl-7-(3-(4-methylpyridin-3-yl)-7,8-dihydro-1,6-naphthyridin-6(5H)-yl)-4H-pyrimido[1,2-b] pyridazin-4-one], the Emax at 30 µM amounted to 85% and the EC50 stood at 34 nM.

For `Cc1c(N2CCc3ncc(-c4ccnn4C)cc3C2)nn2c(=O)ccnc2c1C` [Compound 1-63, 8,9-dimethyl-7-(3-(1-methyl-1H-pyrazol-5-yl)-7,8-dihydro-1,6-naphthyridin-6(5H)-yl)-4H-pyrimido[1,2-b]pyridazin-4-one], the maximal effect (Emax) at 30 µM was 97% and the EC50 came out at 203 nM.

Take `Cc1c(N2CCc3ncc(-c4cnc5ccccc5c4)cc3C2)nn2c(=O)ccnc2c1C` [Compound 1-224, 8,9-dimethyl-7-(3-(quinolin-3-yl)-7,8-dihydro-1,6-naphthyridin-6(5H)-yl)-4H-pyrimido[1,2-b]pyridazin-4-one]: the Emax at 30 µM was determined as 60% and the EC50 is 651 nM.

`Cc1ncc(-c2cnc3c(c2)CN(c2nn4c(=O)ccnc4cc2C)CC3)s1` [Compound 1-5, 8-methyl-7-(3-(2-methylthiazol-5-yl)-7,8-dihydro-1,6-naphthyridin-6(5H)-yl)-4H-pyrimido[1,2-b]pyridazin-4-one]: the Emax at 30 µM is 86% and the half-maximal effective concentration (EC50) stood at 422 nM.
